# Entries after “also recorded” stand apart in the source; their conditions may differ.
# System: heme oxygenase 1 (HO-1)
# Assay: Induction of heme oxygenase 1 in primary AML specimens
# Type: cell-based, human
# Details: compared to vehicle-only control
structure (smiles),measurement,value
"C=C1C(=O)O[C@H]2[C@H]1CC/C(C)=C/CC[C@@]1(C)O[C@@H]21 [PTL, parthenolide]",induction of heme oxygenase 1 (HO-1),Dose-dependent induction; also recorded: comparatively larger induction of HO-1 at lower doses
